# Measured values reported in US8378104B2 (OSI Pharmaceuticals, LLC, priority 2010, dated 2013).
# Columns and labels:
# [1] = tested on: p-p38 in HCT-116 cells; experiment: Phospho-p38 Meso Scale ELISA assay, TNFα-stimulated HCT-116 cells; format: cell-based; conditions: Homo sapiens, read-out: mean HCT-116 p-p38 ELISA IC50 (Col. C)
# Method: Detailed below are ELISA assays for pJNK and p38, and a TAK1 biochemical assay. […] In Table 1, Col.
# • 1. Plate HCT-116 cells at 25,000 per well in 100 uL in 96 well clear dishes in normal growth medium. Day 2: • 1. Aspirate medium and replace with 90 μl reduced serum growth medium (1% FCS), incubate for 2 hours at 37° C. • 2. Make drugs at 10× in reduced serum medium and add 10 uL per well. • 3. Incubate at 37° C. for 4 hrs. • 4. Bring capture plates to room temperature. • 5. Block with 150 μl Blocking Solution (provided with kit) (600 mg Blocker A into 20 mL 1× Wash Buffer per plate) at room temperature with shaking. • 6. Wash plates 4× with 200 μl 1× wash buffer (10× provided with kit) before transferring lysates. • 7. Dilute TNFα to […] in reduced serum medium (this makes a 10× working stock). • 8. Add 10 μl TNFα to all wells except negative control wells, final concentration is 10 ng/mL. • 9. Incubate at 37° C. for 10 minutes. • 10. Remove medium by flicking into sink • 11. Wash cells with 100 uL ice cold PBS. • 12. Remove PBS by flicking into sink and patting on paper towels. • 13. Lyse cells in 50 μl ice cold 1× Complete Lysis Buffer plus Phosphatase and Protease inhibitors (all provided with kit) (10 mL Tris Lysis Buffer+200 μl Protease inhibitor solution+100 μl Phosphatase inhibitor I+100 μl Phosphatase inhibitor II). • 14. Incubate with shaking at 4° C. for 30 minutes. • 15. Transfer 45 μl to capture plate, cover with adhesive cover, and incubate at 4° C. over night with shaking. • Day 3: • 1. Wash plates 4× with 200 μl 1× wash buffer (10× provided with kit). • 2. […] Incubate at room temperature with shaking for 1 hour. • 4. Wash 4× with 200 μl 1× Wash Buffer. • 5. […] Read on Sector Imager. Phospho-p38 Meso Scale ELISA Assay Day 1: • 1. Plate HCT-116 cells at 25,000 per well in 100 uL in 96 well clear dishes in normal growth medium. zday 2: • 1. Aspirate medium and replace with 90 μl reduced serum growth medium (1% FCS), incubate for 2 hours at 37° C. • 2. Make drugs at 10× in reduced serum medium and add 10 uL per well. • 3. Incubate at 37° C. for 4 hrs. • 4. Bring capture plates to room temperature. • 5. Block with 150 μl Blocking Solution (provided with kit) (600 mg Blocker A into 20 mL 1× Wash Buffer per plate) at room temperature with shaking. • 6. Wash plates 4× with 200 μl 1× wash buffer (10× provided with kit) before transferring lysates. • 7. Dilute TNFα to […] in reduced serum medium (this makes a 10× working stock). • 8. Add 10 μl TNFα to all wells except negative control wells, final concentration is 10 ng/mL. • 9. Incubate at 37° C. for 10 minutes. • 10. Remove medium by flicking into sink • 11. Wash cells with 100 uL ice cold PBS. • 12. Remove PBS by flicking into sink and patting on paper towels. • 13. Lyse cells in 50 μl ice cold 1× Complete Lysis Buffer plus phosphatase and protease inhibitors (all provided with kit) (10 mL Tris Lysis Buffer+200 μl Protease inhibitor solution+100 μl Phosphatase inhibitor I+100 μl Phosphatase inhibitor II). • 14. Incubate with shaking at 4° C. for 30 minutes. • 15. Dilute lysates before transferring to capture plate with 100 μl Complete p38 Lysate • Dilution Buffer (provided with kit) (10 mL of Diluent 20±200 μl Protease inhibitor solution+100 μl Phosphatase inhibitor I+100 μl Phosphatase inhibitor II). • 16. Transfer 50 μl of diluted lysates to capture plate, cover with adhesive cover, and incubate at 4° C. over night with shaking. Day 3: • 1. Wash plates 4× with 200 μl 1× wash buffer (10× provided with kit). • 2. […] Incubate at room temperature with shaking for 1 hour. • 4. Wash 4× with 200 μl 1× Wash Buffer. • 5. […] Read on Sector Imager. TAK1 Biochemical Assay
# [2] = tested on: pJNK in HCT-116 cells; experiment: Phospho-JNK (Thr183/Tyr185) Meso Scale ELISA assay, TNFα-stimulated HCT-116 cells; format: cell-based; conditions: Homo sapiens, read-out: mean HCT-116 pJNK ELISA IC50 (Col. B)
# In short: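 HCT-116 cells in 1% FCS medium were pretreated with compound for 4 hrs at 37° C, then stimulated with TNFα at 10 ng/mL final for 10 minutes. Lysates were taken in ice-cold lysis buffer with phosphatase and protease inhibitors, and phospho-JNK (Thr183/Tyr185) was measured by Meso Scale ELISA.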
# [3] = target: T1, TAK1-TAB1 fusion protein (Homo sapiens, UniProt O43318); experiment: TAK1 biochemical assay (AlphaScreen, GST-MAP2K7 substrate); conditions: TAK1-TAB1 fusion protein, GST-MAP2K7 substrate; read-out: mean TAK1 IC50 (Col. A)
# T1 construct: purchased Carna
# T1 sequence (O43318 with tags, fused parts or gaps limits assumed): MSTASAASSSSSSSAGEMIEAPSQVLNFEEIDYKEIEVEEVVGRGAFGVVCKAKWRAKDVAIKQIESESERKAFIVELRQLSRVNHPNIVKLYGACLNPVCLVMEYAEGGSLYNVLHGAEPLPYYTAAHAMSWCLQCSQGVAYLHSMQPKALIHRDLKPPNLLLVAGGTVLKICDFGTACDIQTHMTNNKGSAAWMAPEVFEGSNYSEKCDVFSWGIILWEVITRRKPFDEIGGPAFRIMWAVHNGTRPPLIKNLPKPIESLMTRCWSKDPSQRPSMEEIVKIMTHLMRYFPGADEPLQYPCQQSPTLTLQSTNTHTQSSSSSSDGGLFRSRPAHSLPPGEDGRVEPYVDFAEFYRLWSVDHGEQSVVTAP
IC50 [1] [µM],IC50 [2] [µM],IC50 [3] [µM],SMILES
> 10,1 to 10,0.1 to 1,"CC(=O)N1CCC(n2cc(-c3cnc(N)c4oc(-c5ccc6c(c5)C(=O)NC6)cc34)cn2)CC1 [Example 96, 6-{4-[1-(1-acetylpiperidin-4-yl)-1H-pyrazol-4-yl]-7-aminofuro[2,3-c]pyridin-2-yl}-2,3-dihydro-1H-isoindol-1-one]"
0.1 to 1,0.1 to 1,< 0.1,"Nc1ncc(-c2cnn([C@@H]3C[C@@H](O)[C@@H](O)C3)c2)c2cc(-c3csc4cnccc34)oc12 [Example 311, rel-(1R,2S,4S)-4-[4-(7-amino-2-thieno[2,3-c]pyridin-3-yl-furo[2,3-c]pyridin-4-yl)-pyrazol-1-yl]-cyclopentane-1,2-diol]"
0.1 to 1,0.1 to 1,0.1 to 1,"CC(=O)N1CCC(n2cc(-c3cnc(N)c4oc(-c5ccc(O)cc5)cc34)cn2)CC1 [Example 120, 1-(4-{4-[7-amino-2-(4-hydroxyphenyl)furo[2,3-c]pyridin-4-yl]-1H-pyrazol-1-yl}piperidin-1-yl)ethanone]"
0.1 to 1,0.1 to 1,0.1 to 1,"CC(=O)N1CCC(n2cc(-c3cnc(N)c4oc(-c5ccccc5CC#N)cc34)cn2)CC1 [Example 215, (2-{4-[1-(1-acetylpiperidin-4-yl)-1H-pyrazol-4-yl]-7-aminofuro[2,3-c]pyridin-2-yl}phenyl)acetonitrile]"
0.1 to 1,0.1 to 1,0.1 to 1,"CC(=O)N1CCC(n2cc(-c3cnc(N)c4oc(-c5ccc(O)cc5C)cc34)cn2)CC1 [Example 135, 1-(4-{4-[7-amino-2-(4-hydroxy-2-methylphenyl)furo[2,3-c]pyridin-4-yl]-1H-pyrazol-1-yl}piperidin-1-yl)ethanone]"
1 to 10,1 to 10,0.1 to 1,"CC(=O)N1CCC(n2cc(-c3cnc(N)c4oc(-c5c(C)n[nH]c5C)cc34)cn2)CC1 [Example 180, 1-(4-{4-[7-amino-2-(3,5-dimethyl-1H-pyrazol-4-yl)furo[2,3-c]pyridin-4-yl]-1H-pyrazol-1-yl}piperidin-1-yl)ethanone]"
1 to 10,1 to 10,> 10,"CC(=O)N1CCC(n2cc(-c3cnc(N)c4oc(-c5ccc6nn(C)cc6c5)cc34)cn2)CC1 [Example 145, 1-(4-{4-[7-amino-2-(2-methyl-2H-indazol-5-yl)furo[2,3-c]pyridin-4-yl]-1H-pyrazol-1-yl}piperidin-1-yl)ethanone]"

# Further lines, the compound ahead of its results:
SMILES,IC50 [1] [µM],IC50 [2] [µM],IC50 [3] [µM]
"CC(=O)N1CCC(n2cc(-c3cnc(N)c4oc(-c5cccc6[nH]ccc56)cc34)cn2)CC1 [Example 176, 1-(4-{4-[7-amino-2-(1H-indol-4-yl)furo[2,3-c]pyridin-4-yl]-1H-pyrazol-1-yl}piperidin-1-yl)ethanone]",0.1 to 1,0.1 to 1,< 0.1
"CC(=O)N1CC(n2cc(-c3cnc(N)c4oc(-c5csc6cnccc56)cc34)cn2)C1 [Example 316, 1-{3-[4-(7-amino-2-thieno[2,3-c]pyridin-3-yl-furo[2,3-c]pyridin-4-yl)-pyrazol-1-yl]-azetidin-1-yl}-ethanone]",0.1 to 1,0.1 to 1,< 0.1
"Nc1ncc(-c2cnn([C@H]3CC[C@H](O)CC3)c2)c2cc(-c3ccc4[nH]ncc4c3)oc12 [Example 402, trans-4-{4-[7-amino-2-(1H-indazol-5-yl)furo[2,3-c]pyridin-4-yl]-1H-pyrazol-1-yl}cyclohexanol]",1 to 10,0.1 to 1,0.1 to 1
"CN1CCC(n2cc(-c3cnc(N)c4oc(-c5cccc6cnccc56)cc34)cn2)CC1 [Example 77, 2-(isoquinolin-5-yl)-4-[1-(1-methylpiperidin-4-yl)-1H-pyrazol-4-yl]furo[2,3-c]pyridin-7-amine]",0.1 to 1,< 0.1,0.1 to 1
"CC(=O)N1CCC(n2cc(-c3cnc(N)c4oc(-c5ccc6[nH]nnc6c5)cc34)cn2)CC1 [Example 158, 1-(4-{4-[7-amino-2-(1H-benzotriazol-5-yl)furo[2,3-c]pyridin-4-yl]-1H-pyrazol-1-yl}piperidin-1-yl)ethanone]",> 10,> 10,< 0.1
"CC(=O)N1CCC(n2cc(-c3cnc(N)c4oc(-c5cccc(OCC#N)c5)cc34)cn2)CC1 [Example 205, (3-{4-[1-(1-acetylpiperidin-4-yl)-1H-pyrazol-4-yl]-7-aminofuro[2,3-c]pyridin-2-yl}phenoxy)acetonitrile]",0.1 to 1,0.1 to 1,0.1 to 1
"CC(=O)N1CCC(n2cc(-c3cnc(N)c4oc(-c5cccc6cnccc56)cc34)cn2)CC1 [Example 81, 1-(4-{4-[7-amino-2-(isoquinolin-5-yl)furo[2,3-c]pyridin-4-yl]-1H-pyrazol-1-yl}piperidin-1-yl)ethanone]",0.1 to 1,0.1 to 1,0.1 to 1
"Nc1ncc(-c2cnn(C3CCN(CCO)CC3)c2)c2cc(-c3cccc4cnccc34)oc12 [Example 85, 2-(4-{-4-[7-amino-2-(isoquinolin-5-yl)furo[2,3-c]pyridin-4-yl]-1H-pyrazol-1-yl}piperidin-1-yl)ethanol]",0.1 to 1,0.1 to 1,0.1 to 1
"CC(=O)N1CCC(n2cc(-c3cnc(N)c4oc(-c5csc6cncnc56)cc34)cn2)CC1 [Example 260, 1-(4-{4-[7-amino-2-(thieno[3,2-d]pyrimidin-7-yl)furo[2,3-c]pyridin-4-yl]-1H-pyrazol-1-yl}piperidin-1-yl)ethanone]",1 to 10,1 to 10,0.1 to 1
"COCCN1CCC(n2cc(-c3cnc(N)c4oc(-c5cccc6cnccc56)cc34)cn2)CC1 [Example 68, 2-(isoquinolin-5-yl)-4-{1-[1-(2-methoxyethyl)piperidin-4-yl]-1H-pyrazol-4-yl}furo[2,3-c]pyridin-7-amine]",0.1 to 1,0.1 to 1,0.1 to 1
"CC(=O)N1CCC(n2cc(-c3cnc(N)c4oc(-c5c[nH]c6cc(F)ccc56)cc34)cn2)CC1 [Example 213, 1-(4-{4-[7-amino-2-(6-fluoro-1H-indol-3-yl)furo[2,3-c]pyridin-4-yl]-1H-pyrazol-1-yl}piperidin-1-yl)ethanone]",0.1 to 1,0.1 to 1,0.1 to 1
